Laboratory results: article PMC5447021, “TNF Lectin-Like Domain Restores Epithelial Sodium Channel Function in Frameshift Mutants Associated with Pseudohypoaldosteronism Type 1B” (Frontiers in Immunology, 2017)
Entries after “also recorded” stand apart in the source; their conditions may differ.

Legend:
βγ-ENaC = experiment: Whole-cell patch clamp, WT βγ-ENaC; assay type: cell-based, human; settings: HEK-293, 200 nM solnatide, n = 3
Experimental: HEK-293 cells were transfected 1 day after cell seeding using X-tremeGENE HP DNA transfection reagent (Roche Diagnostics, Mannheim, Germany) according to the manufacturer’s protocol. A set of WT or mutant αβγ- or δβγ-hENaC, or α-, β-, γ-, or δ-hENaC alone was used, and the ratio of DNA to transfection reagent was 1:3. The expression was highest 48–72 h after transfection.
Electrophysiological experiments were performed as described in detail by Shabbir et al. ([16]). […] Currents were recorded with the patch clamp method in the whole-cell mode. The chamber contained 1 ml of the bath solution of the following composition (in mM): 145 NaCl, 2.7 KCl, 1.8 CaCl2, 2 MgCl2, 5.5 glucose, and 10 HEPES, adjusted to pH 7.4 with 1 M NaOH solution. Micropipettes were pulled from thin-walled borosilicate glass capillaries (Harvard Apparatus, Holliston, MA, USA) with a DMZ Zeitz Puller to obtain electrode resistances ranging from 2 to 5 MΩ. The pipette solution contained (in millimolars): 135 potassium methane sulfonate, 10 KCl, 6 NaCl, 1 Mg2ATP, 2 Na3ATP, 10 HEPES, and 0.5 EGTA, adjusted to pH 7.2 with 1 M KOH solution. Chemicals for pipette and bathing solutions were supplied by Sigma-Aldrich (Vienna, Austria). Electrophysiological measurements were carried out with an Axopatch 200B patch clamp amplifier (Axon Instruments, CA, USA). […]

αY447fs = experiment: Membrane abundance of αY447fs; assay type: cell-based, human; settings: 200 nM, relative to WT control (=1), own control 1.27 ± 0.10, p < 0.001 vs control
Experimental: (§1) Cell surface biotinylation was performed as previously described ([26]). In brief, A549 cells or transiently transfected HEK-293 cells were grown in 10 cm dishes in 37°C, 5% CO2 incubator in DMEM medium supplemented with 5% FBS. […] Medium was aspirated, and then cells were washed twice with 10 ml ice-cold phosphate-buffered saline (PBS), covered with 2.5 mg EZ-Link Sulfo-NHS-SS-Biotin (Thermo Scientific, Rockford, USA), dissolved in 10 ml ice-cold PBS, and incubated at 4°C with gentle agitation for 30 min. Fifty milliliters of quenching solution were added to cells; then cells were scraped in solution and transferred to fresh 50 ml tube. Cell suspension was centrifuged at 500 × g for 3 min. Supernatant was discarded, and 5 ml of Tris-buffered saline (TBS) was added to the cell pellet. The cell pellet was resuspended and centrifuged at 500 × g for 3 min. Supernatant was discarded and cell pellet was resuspended in lysis buffer containing protease inhibitor cocktail (10 µM pepstatin A, 10 µM phenylmethylsulfonyl fluoride, and 10 µM leupeptin) and transferred to fresh 1.5 ml centrifuge tube. Cell pellet was then homogenized on ice by ultrasonication using 1 s bursts and incubated on ice for at least 30 min. Intact cells and nuclei were pelleted by centrifugation at 10,000 × g for 2 min under cooling conditions. […] Exposed films were scanned and quantified using ImageJ (NIH, MD, USA). […]

flooded rat lung = settings: in situ and in vivo; cited from earlier work
Text: (§2) Like TNF, TIP peptide can influence regulation of alveolar fluid balance.

pulmonary edema = settings: acute hypobaric hypoxia and exercise; cited from earlier work
Text: as §2

rat lung transplantation = settings: instilled intratracheally into rats prior to lung transplantation; cited from earlier work
Text: as §2

αR438fs = experiment: Membrane abundance of αR438fs; assay type: cell-based, human; settings: 200 nM, relative to WT control (=1)
Experimental: as §1

C[C@@H]1NC(=O)CNC(=O)[C@H](CCC(=O)O)NC(=O)[C@@H]2CCCN2C(=O)[C@H]([C@@H](C)O)NC(=O)[C@H](CCC(=O)O)NC(=O)[C@H](CCCNC(=N)N)NC(=O)[C@H](CCC(N)=O)NC(=O)CNC(=O)[C@@H](N)CSSC[C@@H](C(=O)O)NC(=O)[C@H](Cc2ccc(O)cc2)NC(=O)[C@H](Cc2c[nH]c3ccccc23)NC(=O)[C@@H]2CCCN2C(=O)[C@H](CCCCN)NC(=O)[C@H](C)NC(=O)[C@H](CCC(=O)O)NC1=O [solnatide, L-cysteine, L-cysteinylglycyl-L-glutaminyl-L-arginyl-L-α-glutamyl-L-threonyl-L-prolyl-L-α-glutamylglycyl-L-alanyl-L-α-glutamyl-L-alanyl-L-lysyl-L-prolyl-L-tryptophyl-L-tyrosyl-, cyclic (1→17)-disulfide]
Effect of solnatide on current (words) (βγ-ENaC): small current increase in WT βγ-ENaC; also recorded: can activate βγ-ENaC marginally | Membrane abundance, solnatide 5 min (αY447fs; 5 min): 1.57 ± 0.13 | Membrane abundance, solnatide 10 min (αY447fs; 10 min): 1.89 ± 0.16 | Alveolar fluid reabsorption (flooded rat lung): activate fluid reabsorption in in situ and in vivo flooded rat lung models | Therapeutic activity (pulmonary edema): profound therapeutic activity | Lung function (rat lung transplantation): significantly improved lung function | Membrane abundance, solnatide 5 min (αR438fs; 5 min, own control 0.90 ± 0.07, p < 0.001 vs control): 1.39 ± 0.14 | Membrane abundance, solnatide 10 min (αR438fs; 10 min, own control 0.90 ± 0.07): 0.87 ± 0.10
